Assay results: publication PMC9415822, “Amphotericin B-PEG Conjugates of ZnO Nanoparticles: Enhancement Antifungal Activity with Minimal Toxicity” (Pharmaceutics, 2022)
≈ marks a conversion by molar mass, not a printed value.

Assays:
Male Wistar rats [1] = experiment: In vivo toxicity: biochemical parameters (kidney and liver functions) after injection; parameters: species or system rat; conditions: 10 mg/kg intraperitoneal for seven days, eighth day
Method: (§1) Male Wistar rats weighing 180–220 g were used in this study. The animals were housed in rooms with controlled temperature (23 ± 1 °C) and relative humidity (55 ± 5%) and were allowed free access to water and food during acclimatization. Animals were fasted for 24 h before the experiments but could drink water ad libitum. The animal study protocol was approved by the Ethical Committee, Pharmacy College, Prince Sattam Bin Abdulaziz University, Al-Kharj, KSA (approval number: PHARM-11-10-2021).
(§2) Blood parameters including count of leucocytes (WBC) and red blood cell (RBC), and hemoglobin concentration (Hb), and hemocrit percentage were employed to evaluate the hematological toxicity associated with AMB. Furthermore, the kidney functions were assessed by measuring blood urea nitrogen (BUN) and serum creatinine. Hepatic functions were evaluated by the measure of aspartate transaminase (AST) and alanine transaminase (ALT). Four groups of male Wistar rats, each composed of 5 rats weighing approximately 200 g were used in this study. Three groups were intraperitoneally injected with free AMB, ZnO-AMB or ZnO-AMB-PEG (10 mg/kg body weight) for a continuous seven days. The fourth group was left uninjected as control group. On the eighth day, all rats were anesthetized and euthanized by decapitation for hematological and biochemical assays.

[2] = system: Candida albicans ATCC 64548; experiment: In vitro antifungal assay, broth microdilution (MIC/MFC), C. albicans; type: cell-based; conditions: ATCC64548, SDA plates, 37 °C, 48 h
Method: The broth microdilution method was used to assess the antifungal susceptibility of free AMB, and ZnO, ZnO-AMB, and ZnO-AMB-PEG nanoparticles against Candida albicans ATCC 64548 and Cryptococcus neoformans ATCC 90112 according to the Clinical Laboratory and Standards Institute Guidelines (CLSI, 2015). The nanoparticle solutions were serially diluted in sterile saline to obtain dilutions ranging from 5.0 to 0.00625 µg/mL. Aliquots (100 µL) from different dilutions of different preparations were transferred to the wells of 96-well microtiter plate. Fresh cultures of the tested strains were suspended in RPMI 1640 provided with L-glutamine and MOPS at pH 7.0 to prepare suspensions with a turbidity approximating that of 0.5 McFarland Standard. The fungal suspensions were diluted 1:100 with RPMI 1640 to obtain cell density of 1 × 10^5 CFU/mL. Of the prepared fungal suspensions, 100 µL was added to all dilutions of nanoparticle preparations. […] The minimum inhibitory concentration (MIC) was considered as the lowest concentration that inhibited the visible turbidity. The experiment was repeated six times and both positive control (inoculated fungi in broth without any addition) and negative control (sterile broth without fungi) were included in the experiment. The minimum fungicidal concentration (MFC) was determined according to [23].

[3] = system: Cryptococcus neoformans ATCC 90112; experiment: In vitro antifungal assay, broth microdilution (MIC/MFC), C. neoformans; type: cell-based
Method: The broth microdilution method was used to assess the antifungal susceptibility of free AMB, and ZnO, ZnO-AMB, and ZnO-AMB-PEG nanoparticles against Candida albicans ATCC 64548 and Cryptococcus neoformans ATCC 90112 according to the Clinical Laboratory and Standards Institute Guidelines (CLSI, 2015). The nanoparticle solutions were serially diluted in sterile saline to obtain dilutions ranging from 5.0 to 0.00625 µg/mL. Aliquots (100 µL) from different dilutions of different preparations were transferred to the wells of 96-well microtiter plate. Fresh cultures of the tested strains were suspended in RPMI 1640 provided with L-glutamine and MOPS at pH 7.0 to prepare suspensions with a turbidity approximating that of 0.5 McFarland Standard. The fungal suspensions were diluted 1:100 with RPMI 1640 to obtain cell density of 1 × 10^5 CFU/mL. Of the prepared fungal suspensions, 100 µL was added to all dilutions of nanoparticle preparations. The microtiter plates were incubated at 37 °C for 24 h for C. albicans, and 48 h for C. neoformans. The minimum inhibitory concentration (MIC) was considered as the lowest concentration that inhibited the visible turbidity. […] The minimum fungicidal concentration (MFC) was determined according to [23].

Male Wistar rats [4] = experiment: In vivo toxicity: hematological parameters after injection; parameters: species or system rat; conditions: 10 mg/kg intraperitoneal for seven days, blood on eighth day
Method: as §1, §2

In the case of `C[C@@H]1[C@H](O)[C@@H](C)/C=C/C=C/C=C/C=C/C=C/C=C/C=C/[C@H](O[C@@H]2O[C@H](C)[C@@H](O)[C@H](N)[C@@H]2O)C[C@@H]2O[C@](O)(C[C@@H](O)C[C@@H](O)[C@H](O)CC[C@@H](O)C[C@@H](O)CC(=O)O[C@H]1C)C[C@H](O)[C@H]2C(=O)O` [AMB, Amphotericin B], the “Kidney Functions BUN” value (Male Wistar rats [1]) is reported as 66.52 ± 12.46 mg%, the “Kidney Functions Creatinine” value (Male Wistar rats [1]) is reported as 0.63 ± 0.11 mg% and the “Liver Functions ALT” value (Male Wistar rats [1]) is reported as 100.49 ± 20.95 IU/L. The “Liver Functions AST” value (Male Wistar rats [1]) was 453.15 ± 120.19 IU/L, the MFC [2] was 0.6 mg/L (≈ 0.649 µM) and the MIC ([3]; ATCC90112, RPMI 1640, 37 °C, 48 h) was 0.05 mg/L (≈ 0.0541 µM). It also gave an MFC ([3]; ATCC90112, SDA plates, 37 °C, 72 h) of 0.4 mg/L (≈ 0.433 µM), a Hb (Male Wistar rats [4]) of 13.22 ± 0.95 g% and a Hematocrit (Male Wistar rats [4]) of 37.01 ± 2.68%. The RBCs (Male Wistar rats [4]) was 7.09 ± 0.61 ×10^6/μL and the WBCs (Male Wistar rats [4]) was 17.90 ± 2.46 ×10^3/μL.
